From ChEMBL document CHEMBL1155115 (J Med Chem, 2008) come the findings set out here.

One assay deals with Dictyostelium discoideum. As to the kind of experiment: Antimicrobial activity against Dictyostelium discoideum. In kind it is functional, organism-based.
Assay [1] has as its target T1, Farnesyl pyrophosphate synthase (Homo sapiens) (UniProt P14324).
T1 sequence (whole entry): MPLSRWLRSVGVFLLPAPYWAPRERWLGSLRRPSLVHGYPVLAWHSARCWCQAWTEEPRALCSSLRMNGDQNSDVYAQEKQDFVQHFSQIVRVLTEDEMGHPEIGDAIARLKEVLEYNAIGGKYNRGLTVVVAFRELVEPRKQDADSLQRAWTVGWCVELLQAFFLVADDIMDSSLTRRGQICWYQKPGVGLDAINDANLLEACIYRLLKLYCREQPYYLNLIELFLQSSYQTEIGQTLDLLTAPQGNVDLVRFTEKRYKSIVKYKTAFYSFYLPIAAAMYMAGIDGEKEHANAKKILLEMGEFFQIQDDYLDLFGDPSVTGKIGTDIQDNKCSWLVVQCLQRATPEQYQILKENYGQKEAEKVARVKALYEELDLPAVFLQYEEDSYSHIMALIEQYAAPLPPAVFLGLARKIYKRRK
As to the kind of experiment: Inhibition of farnesyl diphosphate synthase at 30 nM.

Assay [2] has as its target T1, Farnesyl pyrophosphate synthase (Homo sapiens). Description: Inhibition of farnesyl diphosphate synthase at 35 nM.

pIC50: −log10 of the molar value.

Usually pIC50 stands for −log10 of the IC50, conventionally taken in molar units. A low value points to a large IC50. Molecule `Nc1ccccc1CC(O)(P(=O)(O)O)P(=O)(O)O` had a pIC50 with Dictyostelium discoideum of 4.74. Broadly, the inhibition is the change of the read-out against control, counted positive when it falls. A higher inhibition goes with a response far below the control. In assay [1], `O=P(O)(O)C(O)(CC1CCCNC1)P(=O)(O)O` (stereo unspecified) returned an inhibition of 58%. This molecule also gave a pIC50 in the assay with Dictyostelium discoideum of 4.52. `O=P(O)(O)C(O)(Cc1ccccc1)P(=O)(O)O`: in the assay with Dictyostelium discoideum, the pIC50 was greater than 3.62.

In turn, `CC[n+]1cccc(CC(P(=O)([O-])O)P(=O)(O)O)c1` (stereo unspecified) displayed an inhibition in assay [2] of 59%. The molecule also showed a pIC50 with Dictyostelium discoideum of 4.57.
